Results as given in paper PMC12040169 (PLOS Biology, 2025).

Test: in vitro
Details: human, hela cells, % viability

Structure (SMILES) | viability at 28.5 h, 10 µM [%]
O=C(NCc1ccccc1)[C@H]1CN2CCC1C[C@@H]2Cn1cc(-c2ccc(F)cc2)nn1 (some centres unmarked) [CBK288736] | 87
CC(C)(C)c1cn(C[C@H]2CC3CCN2C[C@@H]3C(=O)Nc2nccs2)nn1 (some centres unmarked) [CBK288737] | 87
O=C(NC1CC1)[C@H]1CN2CCC1C[C@@H]2Cn1cc(-c2cccc(O)c2)nn1 (some centres unmarked) [CBK288738] | 79.8
O=C(NC1CC1)[C@H]1CN2CCC1C[C@@H]2Cn1cc(CC2CCCCC2)nn1 (some centres unmarked) [CBK288739] | 103
Cn1nc(C2CCCC2)cc1[C@H]1CN2CC[C@H]1C[C@@H]2CNC(=O)N1CCOCC1 [CBK288740] | 83.4
Cn1nc(C2CCCC2)cc1[C@H]1CN2CC[C@H]1C[C@@H]2CNS(=O)(=O)c1ccccc1 [CBK288741] | 96.3
CCNC(=O)NC[C@H]1C[C@@H]2CCN1C[C@@H]2c1cc(C2CCCC2)nn1C [CBK288743] | 93.6
CC(C)NC(=O)NC[C@H]1C[C@@H]2CCN1C[C@@H]2c1cc(C2CCCC2)nn1C [CBK288744] | 96.5
CC[C@H]1C[N@@]2CC[C@H]1C[C@@H]2CNS(=O)(=O)c1ccc(NC(C)=O)cc1 [CBK288745] | 82.9
CC[C@H]1C[N@@]2CC[C@H]1C[C@@H]2CNS(=O)(=O)c1cccc2cccnc12 [CBK288747] | 90.6
CC[C@H]1CN2CC[C@H]1C[C@@H]2CNC(=O)Nc1cccc(C#N)c1 [CBK288748] | 87.4
C=C[C@H]1C[N@@]2CC[C@H]1C[C@@H]2CNS(=O)(=O)c1cccc(C#N)c1 [CBK288750] | 103
C=C[C@H]1C[N@@]2CC[C@H]1C[C@@H]2CNS(=O)(=O)c1cccc2cccnc12 [CBK288751] | 98.2
C#C[C@H]1C[N@@]2CC[C@H]1C[C@@H]2CNS(=O)(=O)c1cccc(C#N)c1 [CBK288753] | 106
C#C[C@H]1C[N@@]2CC[C@H]1C[C@@H]2CNC(=O)Nc1ccc(C(C)=O)cc1 [CBK288755] | 114
COc1ccc(-c2cc([C@H]3CN4CC[C@H]3C[C@@H]4CNC(C)=O)n(C)n2)cc1OC [CBK288757] | 86.3
Cc1ccc(S(=O)(=O)NC[C@H]2C[C@@H]3CC[N@]2C[C@@H]3CN2CCOCC2)cc1 [CBK288758] | 94.2
O=S(=O)(NC[C@H]1C[C@@H]2CC[N@]1C[C@@H]2CN1CCOCC1)c1cccs1 [CBK288759] | 90.7
O=S(=O)(NC[C@H]1C[C@@H]2CCN1C[C@@H]2CN1CCOCC1)c1ccccc1 [CBK288760] | 92.9
O=S(=O)(NC[C@H]1C[C@@H]2CC[N@]1C[C@@H]2CN1CCOCC1)c1ccc(Cl)cc1 [CBK288762] | 92.4
COc1ccc(S(=O)(=O)NC[C@H]2C[C@@H]3CC[N@]2C[C@@H]3CN2CCCCC2)cc1 [CBK288764] | 98.9
CC(=O)c1ccc(NC(=O)NC[C@H]2C[C@@H]3CC[N@]2C[C@@H]3CN2CCN(C)CC2)cc1 [CBK288768] | 116
COc1ccc(S(=O)(=O)NC[C@H]2C[C@@H]3CC[N@]2C[C@@H]3CN2CCSCC2)cc1 [CBK288769] | 86.6
COc1ccccc1N1CCN(C[C@H]2C[N@@]3CC[C@H]2C[C@@H]3CNS(C)(=O)=O)CC1 [CBK288770] | 87.5
CC[C@H]1CN(C(=O)c2cccnc2)CC[C@H]1CC(=O)NCc1ccc2c(c1)OCO2 [CBK288771] | 87.7

Structure (SMILES) | viability at 28.5 h, 10 µM [%]
CC[C@H]1CN(C(=O)NC(C)C)CC[C@H]1CC(=O)Nc1nccs1 [CBK288774] | 109
CC[C@H]1CN(C(=O)Nc2cccc(C(F)(F)F)c2)CC[C@H]1CC(=O)O [CBK288776] | 89.3
CC[C@H]1CN(C(=O)Nc2ccccc2)CC[C@H]1CC(=O)N(C)CC#N [CBK288777] | 101
CC[C@H]1CN(S(=O)(=O)c2c(C)noc2C)CC[C@H]1CC(=O)Nc1nccs1 [CBK288779] | 88.3
CCCNC(=O)C[C@@H]1CCN(S(=O)(=O)c2c(C)noc2C)C[C@@H]1CC [CBK288780] | 103
O=C(O)C[C@@H]1CCN(C(=O)C2CCCCC2)C[C@@H]1CCN1CCCCC1 [CBK288781] | 90.1
COc1ccc(C(=O)N2CC[C@H]3CC(=O)N(CCNC(C)=O)CC[C@H]3C2)cc1 [CBK288784] | 78.8
O=C1C[C@@H]2CCN(C(=O)Nc3cccc(C(F)(F)F)c3)C[C@@H]2CCN1CCc1c[nH]cn1 [CBK288786] | 105
COc1cccc(NC(=O)N2CC[C@H]3CC(=O)N(c4ccccc4)CC[C@H]3C2)c1 [CBK288787] | 95.4
CC(C)N1CC[C@H]2CN(C(=O)CCC(=O)O)CC[C@H]2CC1=O [CBK288789] | 87.8
O=C1C[C@@H]2CCN(C(=O)COc3ccccc3)C[C@@H]2CCN1Cc1cccnc1 [CBK288793] | 82
C=CCNC(=O)N1CC[C@H]2CC(=O)N(Cc3ccc4c(c3)OCO4)CC[C@H]2C1 [CBK288794] | 97.8
COc1ccc(C(=O)N2CC[C@H]3CC(=O)N(CCN4CCNC4=O)CC[C@H]3C2)cc1 [CBK288795] | 110
CC(C)(C)c1cc(C[C@H]2CNCC[C@H]2CC(=O)Nc2nccs2)no1 [CBK288798] | 81
CC(C)(C)c1cc(C[C@H]2CNCC[C@H]2CC(=O)N2CCN(c3ccccn3)CC2)no1 [CBK288799] | 87.4
O=C(C[C@@H]1CCNC[C@@H]1Cc1cc(-c2ccc(F)cc2)on1)Nc1ccccc1 [CBK288801] | 96.4
CC(C)(C)NC(=O)C[C@@H]1CCNC[C@@H]1Cc1cc(-c2ccc(F)cc2)on1 [CBK288802] | 99.2
Cc1nn(CCC#N)c(C)c1[C@@H]1C=C[C@@H](NS(=O)(=O)c2ccccc2)C1 [CBK288805] | 91
Cc1nn(-c2cccc(Br)c2)c(C)c1[C@@H]1C=C[C@@H](NS(C)(=O)=O)C1 [CBK288806] | 86.3
COc1ccc(CN[C@H]2[C@H](O)[C@@H](N3CCN(C(C)=O)CC3)[C@@H]3OC[C@H]2O3)cc1 [CBK288808] | 96.9
CC(=O)N1CCN([C@H]2[C@@H]3OC[C@@H](O3)[C@@H](NC(=O)NC3CCCCC3)[C@@H]2O)CC1 [CBK288810] | 101
O=C(Nc1cccc(C(F)(F)F)c1)N[C@H]1[C@H](O)[C@@H](Oc2ccccc2)[C@@H]2OC[C@H]1O2 [CBK288811] | 106
C=CCNC(=O)N[C@H]1[C@H](O)[C@@H](Oc2ccccc2)[C@@H]2OC[C@H]1O2 [CBK288812] | 90.5
COc1ccc(NC(=O)N[C@H]2[C@H](O)[C@@H](Sc3ccccc3)[C@@H]3OC[C@H]2O3)cc1 [CBK288813] | 96.4
O[C@H]1[C@H](NCc2ccccn2)[C@H]2CO[C@H](O2)[C@@H]1N1CCC(Cc2ccccc2)CC1 [CBK288814] | 87.2

Structure (SMILES) | viability at 28.5 h, 10 µM [%]
CCNC(=O)N[C@H]1[C@H](O)[C@@H](N(CC)CC)[C@@H]2OC[C@H]1O2 [CBK288816] | 113
COc1ccc(NC(=O)N[C@H]2[C@H](O)[C@@H](N3CCOCC3)[C@@H]3OC[C@H]2O3)cc1 [CBK288820] | 101
O=C(NC1CCCCC1)N[C@H]1[C@H](O)[C@@H](N2CCN(c3ccccc3)CC2)[C@@H]2OC[C@H]1O2 [CBK288822] | 95
CN1CCN([C@H]2[C@@H]3OC[C@@H](O3)[C@@H](NCc3ccc(CO)o3)[C@@H]2O)CC1 [CBK288823] | 91.5
CN1CCN([C@H]2[C@@H]3OC[C@@H](O3)[C@@H](NCc3ccc(N(C)C)cc3)[C@@H]2O)CC1 [CBK288824] | 109
O=C(Nc1ccc(F)cc1)N[C@H]1[C@H](O)[C@@H](N2CCCCC2)[C@@H]2OC[C@H]1O2 [CBK288826] | 98.5
COc1ccc(CN[C@H]2[C@H](O)[C@@H](N3CCCC3)[C@@H]3OC[C@H]2O3)cc1 [CBK288827] | 88.6
O=C(Nc1cccc(C(F)(F)F)c1)N[C@H]1[C@H](O)[C@@H](N2CCCC2)[C@@H]2OC[C@H]1O2 [CBK288828] | 105
C=CCNC(=O)N[C@H]1[C@H](O)[C@@H](N2CCCC2)[C@@H]2OC[C@H]1O2 [CBK288829] | 92.6
NC(=O)C1CCN([C@H]2[C@@H]3OC[C@@H](O3)[C@@H](NCc3ccc(F)cc3)[C@@H]2O)CC1 [CBK288830] | 91.2
O=S(=O)(Cc1noc([C@@H]2C[C@@H](O)CN2Cc2ccc(F)cc2)n1)c1ccc(F)cc1 [CBK288831] | 118
OCc1ccc(CN2C[C@H](O)C[C@H]2c2nc(-c3cnccn3)no2)o1 [CBK288832] | 91.9
O=[N+]([O-])c1ccc(CN2C[C@H](O)C[C@H]2c2nc(-c3ccccc3)no2)cc1 [CBK288833] | 108
COCc1cn(C[C@H]2CC3CCN2C[C@@H]3C(=O)NC2CC2)nn1 (some centres unmarked) [CBK288835] | 98.6
O[C@H]1CN[C@H](c2nc(-c3ccc(OC(F)(F)F)cc3)no2)C1 [CBK288836] | 112
Cc1cccc(-c2noc([C@@H]3C[C@@H](O)CN3Cc3ccccn3)n2)c1 [CBK288837] | 98.2
Cc1ccc(S(=O)(=O)Cc2noc([C@@H]3C[C@@H](O)CN3CC3CCCCC3)n2)cc1 [CBK288841] | 115
COc1ccc(-c2noc([C@@H]3C[C@@H](O)CN3C3CCOCC3)n2)cc1 [CBK288844] | 83.7
CC(=O)N1CCC(N2C[C@H](O)C[C@H]2c2nc(-c3cccc([N+](=O)[O-])c3)no2)CC1 [CBK288846] | 90.5
OCc1ccc(CN2C[C@H](O)C[C@H]2c2nc(-c3ccc(F)cc3)no2)o1 [CBK288848] | 106
COc1ccccc1C(=O)N[C@H]1C[C@@H](c2nc(-c3cnccn3)no2)N(C)C1 [CBK288850] | 96
CN1C[C@@H](NC(=O)Nc2ccccc2)C[C@H]1c1nc(-c2cnccn2)no1 [CBK288851] | 87.5
COc1cccc(NC(=O)N[C@H]2C[C@@H](c3nc(-c4ccccn4)no3)N(C)C2)c1 [CBK288853] | 108
CN1C[C@@H](NC(=O)c2ccc3c(c2)OCO3)C[C@H]1c1nc(-c2ccc(Cl)cc2)no1 [CBK288854] | 90.6
